Assays:
Assay in all cases: relative viability (nuclei count vs DMSO), 5 days (fraction); higher = more cells survive
RAF265 + AZD7762 = compound: Cn1c(Nc2ccc(C(F)(F)F)cc2)nc2cc(Oc3ccnc(-c4ncc(C(F)(F)F)[nH]4)c3)ccc21 [RAF265] + NC(=O)Nc1cc(-c2cccc(F)c2)sc1C(=O)N[C@H]1CCCNC1 [AZD7762] (partner 0.2 µM)
Outline: (§1)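 Values are medians from duplicate plates. Each reflects relative viability, defined as the nuclei count of treated wells over that of vehicle wells. Lung cancer cell lines in 1536-well plates were pin-tool dosed one day after seeding with one drug alone or with a fixed anchor-drug dose plus five library-drug doses (not always all listed) in √10 steps, then fixed, stained and imaged at 4× after 5 days.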

RAF265 + Vorinostat = compound: Cn1c(Nc2ccc(C(F)(F)F)cc2)nc2cc(Oc3ccnc(-c4ncc(C(F)(F)F)[nH]4)c3)ccc21 [RAF265] + O=C(CCCCCCC(=O)Nc1ccccc1)NO [Vorinostat] (partner 1 µM)
Outline: as §1

RAF265 + Decitabine = compound: Cn1c(Nc2ccc(C(F)(F)F)cc2)nc2cc(Oc3ccnc(-c4ncc(C(F)(F)F)[nH]4)c3)ccc21 [RAF265] + Nc1ncn([C@H]2C[C@H](O)[C@@H](CO)O2)c(=O)n1 [Decitabine] (partner 2 µM)
Outline: as §1

Doramapimod + Navitoclax = compound: Cc1ccc(-n2nc(C(C)(C)C)cc2NC(=O)Nc2ccc(OCCN3CCOCC3)c3ccccc23)cc1 [Doramapimod] + CC1(C)CCC(c2ccc(Cl)cc2)=C(CN2CCN(c3ccc(C(=O)NS(=O)(=O)c4ccc(N[C@H](CCN5CCOCC5)CSc5ccccc5)c(S(=O)(=O)C(F)(F)F)c4)cc3)CC2)C1 [Navitoclax] (partner 0.5 µM)
Outline: as §1

Cell Line | relative viability (RAF265 + AZD7762; first compound 0.01 µM) | relative viability (RAF265 + AZD7762; first compound 0.03162 µM) | relative viability (RAF265 + AZD7762; first compound 0.1 µM) | relative viability (RAF265 + AZD7762; first compound 0.3162 µM) | relative viability (RAF265 + AZD7762; first compound 1 µM) | relative viability (RAF265 + Vorinostat; first compound 0.01 µM) | relative viability (RAF265 + Vorinostat; first compound 0.03162 µM) | relative viability (RAF265 + Vorinostat; first compound 0.1 µM) | relative viability (RAF265 + Vorinostat; first compound 0.3162 µM) | relative viability (RAF265 + Vorinostat; first compound 1 µM) | relative viability (RAF265 + Decitabine; first compound 0.01 µM) | relative viability (RAF265 + Decitabine; first compound 0.03162 µM) | relative viability (RAF265 + Decitabine; first compound 0.1 µM) | relative viability (RAF265 + Decitabine; first compound 0.3162 µM) | relative viability (RAF265 + Decitabine; first compound 1 µM) | relative viability (Doramapimod + Navitoclax; first compound 0.02 µM) | relative viability (Doramapimod + Navitoclax; first compound 0.06325 µM) | relative viability (Doramapimod + Navitoclax; first compound 0.2 µM) | relative viability (Doramapimod + Navitoclax; first compound 0.6325 µM) | relative viability (Doramapimod + Navitoclax; first compound 2 µM)
NCI-H1975 | 0.694 | 0.667 | 0.635 | 0.484 | 0.406 | 0.718 | 0.644 | 0.542 | 0.338 | 0.325 | 0.403 | 0.364 | 0.308 | 0.263 | 0.254 | 1.2 | 1.19 | 0.991 | 1.16 | 0.981
RERF-LC-KJ | 1.1 | 1.03 | 0.765 | 0.756 | 0.557 | 0.704 | 0.647 | 0.772 | 0.649 | 0.582 | 0.815 | 0.616 | 0.669 | 0.583 | 0.527 | 1.09 | 1.35 | 0.858 | 0.853 | 1.01
NCI-H441 | 1.1 | 1.08 | 1.2 | 0.967 | 0.936 | 0.802 | 0.712 | 0.643 | 0.715 | 0.421 | 0.25 | 0.227 | 0.22 | 0.278 | 0.214 | 0.857 | – | 0.558 | 0.818 | 0.353
HCC-78 | 0.634 | 0.863 | 0.731 | 0.269 | 0.567 | 0.459 | 0.485 | 0.464 | 0.645 | 0.406 | 0.852 | 0.73 | 0.752 | 0.731 | 0.669 | 0.834 | 0.81 | 0.81 | 0.874 | 0.777
NCI-H1915 | 0.649 | 0.655 | 0.663 | 0.602 | 0.41 | 0.502 | 0.436 | 0.424 | 0.296 | 0.201 | 0.262 | 0.278 | 0.258 | 0.236 | 0.193 | 0.843 | 0.838 | 0.85 | 0.801 | 0.761

Source: the supplement of paper PMC10307832
